Test results as given in patent publication US7291641B2, “Derivatives of heterocycles with 5 members, their preparation and their use as medicaments” (Societe de Conseils de Recherches et d'Applications …, priority 1999, dated 2007).
Structures can show the parent of a compound that is named as a salt.

Compound: CN(Cc1ccccc1)[C@H](Cc1c[nH]c2ccccc12)c1nc(-c2ccccc2)c[nH]1 [Example 46, (1R)-N-benzyl-2-(1H-indol-3-yl)-N-methyl-1-(4-phenyl-1H-imidazol-2-yl)ethanamine]
- melting point: 110 to 112 °C

Compound: c1ccc(CN[C@H](CC2CCCCC2)c2nc(-c3ccc(-c4ccccc4)cc3)c[nH]2)cc1 [Example 169, (1R)-N-benzyl-1-(4-[1,1′-biphenyl]-4-yl-1H-imidazol-2-yl)-2-cyclohexylethanamine]
- melting point: 233 to 238 °C

Compound: O=C(NCCc1nc(-c2ccc(-c3ccccc3)cc2)c[nH]1)OC1CCCCC1 [Example 269, 4-[2-(2-{[(cyclohexyloxy)carbonyl]amino}ethyl)-1H-imidazol-4-yl]-1,1′-biphenyl]
- melting point: 150 °C

Compound: CCCCOC(=O)NCCc1nc(-c2ccc(F)cc2)c[nH]1 [Example 251, butyl 2-[4-(4-fluorophenyl)-1H-imidazol-2-yl]ethylcarbamate]
- melting point: 87 °C

Compound: CCCCOC(=O)NCCc1nc(-c2ccc(N3CCCC3)cc2)c[nH]1 (as salt: hydrochloride) [Example 317, butyl 2-[4-(4-pyrrolidin-1-ylphenyl)-1H-imidazol-2-yl]ethylcarbamate]
- melting point: 165 to 166 °C

Compound: c1ccc(CC[C@@H](NCc2ccccc2)c2nc(-c3ccccc3)c[nH]2)cc1 [Example 135, (1R)-N-benzyl-3-phenyl-1-(4-phenyl-1H-imidazol-2-yl)-1-propanamine]
- melting point: 142 to 144 °C

Compound: CCCCOC(=O)NCCc1nc(-c2ccc(-c3ccccc3Cl)cc2)c[nH]1 [Example 454, butyl 2-[4-(2′-chloro-1,1′-biphenyl-4-yl)-1H-imidazol-2-yl]ethylcarbamate]
- melting point: 99.7 °C

Compound: CCCCC(NCc1ccccc1)c1nc(-c2ccccc2)c[nH]1 (racemic) [Example 186, (R,S)-N-benzyl-1-(4-phenyl-1H-imidazol-2-yl)-1-pentanamine]
- melting point: 200 to 202 °C

Compound: O=C(NCCc1nc(-c2ccc(-c3ccccc3)cc2)c[nH]1)OCC1CCCCC1 [Example 280, cyclohexylmethyl 2-(4-[1,1′-biphenyl]-4-yl-1H-imidazol-2-yl)ethylcarbamate]
- melting point: 132 to 134 °C

Compound: CCCCC(N)c1nc(-c2ccc(-c3ccccc3)cc2)c[nH]1 (racemic) (as salt: hydrochloride) [Example 175, (R,S)-1-(4-[1,1′-biphenyl]-4-yl-1H-imidazol-2-yl)-1-pentanamine]
- melting point: 197 to 200 °C

Compound: FC(F)(F)c1cc(-c2c[nH]c([C@@H](NC3CCCCC3)C3CCCCC3)n2)cc(C(F)(F)F)c1 [Example 284, N-[(S)-{4-[3,5-bis(trifluoromethyl)phenyl]-1H-imidazol-2-yl}(cyclohexyl)methyl]cyclohexanamine]
- melting point: 180 to 182 °C

Compound: CC(C)CCCOC(=O)NCCc1nc(-c2ccc(-c3ccccc3)cc2)c[nH]1 [Example 378, 4-methylpentyl 2-[4-(1,1′-biphenyl-4-yl)-1H-imidazol-2-yl]ethylcarbamate]
- melting point: 128.3 °C

Compound: O=C(NCCc1nc(-c2ccc(-c3ccccc3)cc2)c[nH]1)OCc1ccccc1 [Example 237, 4-[2-(2-{[(benzyloxy)carbonyl]amino}ethyl)-1H-imidazol-4-yl]-1,1′-biphenyl]
- melting point: 134 to 136 °C

Compound: c1ccc(CN[C@H](Cc2csc3ccccc23)c2nc(-c3ccccc3)c[nH]2)cc1 [Example 111, (1R)-2-(1-benzothien-3-yl)-N-benzyl-1-(4-phenyl-1H-imidazol-2-yl)ethanamine]
- melting point: 152 to 154 °C

Compound: NCc1nc(-c2ccccc2)c(-c2ccccc2)[nH]1 (as salt: hydrochloride) [Example 160, (4,5-diphenyl-1H-imidazol-2-yl)methanamine]
- melting point: 210 to 212 °C

Compound: O=C(N[C@H](Cc1c[nH]c2ccccc12)c1nc(-c2ccccc2)cs1)c1ccccc1 [Example 101, N-[(1R)-2-(1H-indol-3-yl)-1-(4-phenyl-1,3-thiazol-2-yl)-ethyl]benzamide]
- melting point: 108 to 110 °C

Compound: CC(C)(C)c1cc(-c2c[nH]c([C@@H](NCC3CCCCC3)C3CCCCC3)n2)cc(C(C)(C)C)c1O (as salt: hydrochloride) [Example 291, 2,6-ditert-butyl-4-(2-{(S)-cyclohexyl[(cyclohexylmethyl)amino]-methyl}-1H-imidazol-4-yl)phenol]
- melting point: 254.6 °C

Compound: c1[nH]c([C@@H](NC2CCCCC2)C2CCCCC2)nc1C1CCCCC1 (as salt: hydrochloride) [Example 82, N-[(S)-cyclohexyl(4-cyclohexyl-1H-imidazol-2-yl)methyl]-cyclohexanamine]
- melting point: 180 to 182 °C

Compound: O=C(NCCc1nc(-c2ccc(-c3ccc(Br)cc3)cc2)c[nH]1)OCCCC(F)(F)F [Example 344, 4,4,4-trifluorobutyl 2-[4-(4′-bromo-1,1′-biphenyl-4-yl)-1H-imidazol-2-yl]ethylcarbamate]
- melting point: 176.5 °C

Compound: Cn1cc(-c2ccc(-c3ccccc3)cc2)nc1CN (as salt: hydrochloride) [Example 55, (4-[1,1′-biphenyl]-4-yl-1-methyl-1H-imidazol-2-yl)methanamine]
- melting point: 279 to 280 °C

Compound: CC(C)[C@@H](NC1CCCCC1)c1nc(-c2ccc(F)cc2)c[nH]1 [Example 276, N-{(1R)-1-[4-(4-fluorophenyl)-1H-imidazol-2-yl]-2-methylpropyl}-cyclohexanamine]
- melting point: 224 to 226 °C

Compound: Fc1ccc(-c2c[nH]c([C@H](NCC3CCCCC3)C3CCCCC3)n2)cc1 (as salt: hydrochloride) [Example 318, (R)-1-cyclohexyl-N-(cyclohexylmethyl)-1-[4-(4-fluorophenyl)-1H-imidazol-2-yl]methanamine]
- melting point: 188.2 °C

Compound: CC(C)(C)OC(=O)NCc1nc(-c2ccccc2)c(-c2ccccc2)[nH]1 [Example 157, tert-butyl (4,5-diphenyl-1H-imidazol-2-yl)methylcarbamate]
- melting point: 144 to 146 °C

Compound: C[C@@H](N)c1nc(-c2ccccc2)c[nH]1 (as salt: hydrochloride) [Example 219, (1R)-1-(4-phenyl-1H-imidazol-2-yl)ethanamine]
- melting point: 178 to 181 °C

Compound: CC(C)CCC(NC1CCCCC1)c1nc(-c2ccc(F)cc2)c[nH]1 (racemic) (as salt: hydrochloride) [Example 257, (R,S)-N-{1-[4-(4-fluorophenyl)-1H-imidazol-2-yl]4-methylpentyl}-cyclohexanamine]
- melting point: 230 to 232 °C

Compound: CCCCCCC(NC1CCCCC1)c1nc(-c2ccc(F)cc2)c[nH]1 (centres unmarked) [Example 38, N-{1-[4-(4-fluorophenyl)-1H-imidazol-2-yl]heptyl}cyclohexanamine]
- melting point: 190 to 192 °C

Compound: CC(C)(C)OC(=O)NCc1nc(-c2ccccc2)c[nH]1 [Example 103, tert-butyl (4-phenyl-1H-imidazol-2-yl)methylcarbamate]
- melting point: 170 to 172 °C

Compound: CC(C)C[C@@H](NCc1ccccc1)c1nc(-c2ccccc2)c[nH]1 [Example 125, (1R)-N-benzyl-3-methyl-1-(4-phenyl-1H-imidazol-2-yl)-1-butanamine]
- melting point: 134 to 135 °C

Compound: CCCCC(NC(=O)OC(C)(C)C)c1nc(-c2ccc(-c3ccccc3)cc2)c[nH]1 (racemic) [Example 59, (R,S)-4-(2-{1-[(tert-butoxycarbonyl)amino]pentyl}-1H-imidazol-4-yl)-1,1′-biphenyl]
- melting point: 172 to 176 °C

Compound: CC(C)(C)OC(=O)NC(C)(C)c1nc(-c2ccccc2)c[nH]1 [Example 127, tert-butyl 1-methyl-1-(4-phenyl-1H-imidazol-2-yl)ethylcarbamate]
- melting point: 130 to 132 °C

Compound: CC(C)(C)c1cc(-c2c[nH]c(CCNC(=O)OCC3CCCCC3)n2)cc(C(C)(C)C)c1O (as salt: hydrochloride) [Example 329, cyclohexylmethyl 2-[4-(3,5-ditert-butyl-4-hydroxyphenyl)-1H-imidazol-2-yl]ethylcarbamate]
- melting point: 111.5 °C

Compound: CCCCC(N)c1nc(-c2ccccc2)c[nH]1 (racemic) (as salt: hydrochloride) [Example 181, (R,S)-1-(4-phenyl-1H-imidazol-2-yl)pentylamine]
- melting point: 178 to 180 °C

Compound: CCCCCCC(NCc1ccccc1)c1nc(-c2ccc(C#N)cc2)c[nH]1 (racemic) [Example 217, (R,S)-4-{2-[1-(benzylamino)heptyl]-1H-imidazol-4-yl}benzonitrile]
- melting point: 188 to 189 °C

Compound: Fc1cccc(-c2c[nH]c([C@@H](NC3CCCCC3)C3CCCCC3)n2)c1 (as salt: hydrochloride) [Example 314, N-{(S)-cyclohexyl[4-(3-fluorophenyl)-1H-imidazol-2-yl]methyl}cyclohexanamine]
- melting point: 213.9 °C

Compound: CCCCOC(=O)NCCc1nc(-c2ccc(-c3ccc(C(F)(F)F)cc3)cc2)c[nH]1 [Example 452, butyl 2-{4-[41-(trifluoromethyl)-1,1′-biphenyl-4-yl]-1H-imidazol-2-yl}ethylcarbamate]
- melting point: 168.5 °C

Compound: CC[C@H](NC(=O)OC(C)(C)C)c1nc(-c2ccccc2)c(-c2ccccc2)[nH]1 [Example 197, tert-butyl (1S)-1-(4,5-diphenyl-1H-imidazol-2-yl)propylcarbamate]
- melting point: 136 to 138 °C

Compound: CCCCCCC(N)c1nc(-c2ccccc2Cl)c[nH]1 (racemic) (as salt: hydrochloride) [Example 221, (R,S)-1-[4-(2-chlorophenyl)-1H-imidazol-2-yl]-1-heptanamine]
- melting point: 138 to 140 °C

Compound: CCCCOC(=O)N[C@H](C)c1nc(-c2ccc(-c3ccccc3)cc2)c[nH]1 [Example 242, 4-(2-{(1R)-1-[(butoxycarbonyl)amino]ethyl}-1H-imidazol-4-yl)-1,1′-biphenyl]
- melting point: 114 to 116 °C

Compound: CCCCOC(=O)NCCc1nc(-c2ccc(-c3ccc(Cl)cc3)cc2)c[nH]1 [Example 395, butyl 2-[4-(4′-chloro-1,1′-biphenyl-4-yl)-1H-imidazol-2-yl]ethylcarbamate]
- melting point: 164.2 °C

Compound: c1ccc(CN[C@H](CC2CCCCC2)c2nc(-c3ccccc3)c[nH]2)cc1 [Example 134, (1R)-N-benzyl-2-cyclohexyl-1-(4-phenyl-1H-imidazol-2-yl)ethanamine]
- melting point: 52 to 54 °C

Compound: CC(C)(C)c1ccc(-c2c[nH]c(CCNC(=O)OCc3ccccc3)n2)cc1 [Example 382, benzyl 2-[4-(4-tert-butylphenyl)-1H-imidazol-2-yl]ethylcarbamate]
- melting point: 173 °C
